In paper PMC12135518 (Antimicrobial Agents and Chemotherapy, 2025):
Read-outs that look alike come from different tables or passages of the source.

Columns and labels:
[1] = at equivalent dosages, cited from earlier work
Text: Different pharmacokinetic characteristics are anticipated in renal transplant patients depending on the unique physiologic status of these patients ([18], [19]). Moreover, in the early postoperative phase following kidney transplantation, patients undergo gradual recovery of renal function, accompanied by increased urine output and a rapid decline in serum creatinine levels, typically returning to normal within 2–4 weeks ([20][–][22]). […] In addition, renal transplant patients are mor ...

[2] = Population pharmacokinetic modeling of teicoplanin plasma concentrations (two-compartment model, Phoenix NLME, FOCE-ELS); format: in vivo, renal transplant patients
Method: This prospective study was conducted at the kidney transplantation department in the Second Xiangya Hospital of Central South University (Changsha, China). […] The exclusion criteria were as follows: (i) lack any of the demographic and laboratory data described below, (ii) unable to get the blood samples, and (iii) pregnancy. This study was approved by the Ethics Committee of the Second Xiangya Hospital, Central South University, and informed consent was obtained from all patients or legal representatives of the patients. The study employed a two-phase enrollment design to establish and validate the population PK model. Initial model development utilized patient data collected between January 2022 and December 2023. Following the establishment of the final population PK model, a distinct cohort of patients was prospectively recruited between November 2024 and March 2025 to conduct an external validation.
The supernatant was immediately stored at −80℃ until analysis.
Plasma samples (200 µL) were extracted by protein precipitation with MARG-1A (500 µL), after vortex oscillation for 1 minute, centrifugation at 14,500 r/min for 8 min, and 600 µL of the clear supernatant was transferred into autosampler vials for further analysis.
One-, two-, and three-compartment models with first-order elimination were evaluated as potential structural PK models based on changes in the objective function value (OFV, −2 × log-likelihood) and goodness-of-fit plots. The inter-individual variability of the PK parameters was evaluated using an exponential model. Residual variability was selected with additive, proportional, and combined error models:
The following patient covariates were tested for their influence on the PK parameters of teicoplanin: age, sex, body weight, ALT, AST, TBIL, DBIL, ALB, baseline, and real-time CrCL. The stepwise covariate modeling (SCM) approach was used to test the covariate model in this analysis. A reduction in OFVs of ≥3.84 was considered to be statistically significant (P < 0.05) for the inclusion of one covariate in the forward inclusion steps, and an increase in OFVs of ≥6.63 was considered to be statistically significant (P < 0.01) in the backward elimination steps.
The validity of the final model was assessed by visual inspection of goodness-of-fit (GoF) plots, including observed concentrations versus individual predictions (IPRED), observed concentrations versus population predictions (PRED), and conditional weighted residuals (CWRES) versus population predictions and time. Next, the accuracy and stability of the final model were evaluated using the bootstrap method. The medians and 95% confidence intervals of the PK parameter estimates were obtained from the 1,000 bootstrap runs. The model was considered stable if the typical population values for the PK parameters of the final model were within the 95% confidence interval of the bootstrap results, and the biases were less than 10% with no bias across zero.

[3] = cited from earlier work
MRSA = conditions: patients achieving AUC24h/MIC ≥900; cited from earlier work
plasma albumin = conditions: ref not given; cited from earlier work
Text: After that, a suitable maintaining dose should be employed to sustain the target concentration.

[4] = renal transplant patients, 306 plasma samples from 79 patients

## polymyxin B
[1]; other patients
  incidence of neurological toxicity: 27%
  incidence of pigment toxicity: 15%
[1]; renal transplant patients
  incidence of neurological toxicity: 63.4%
  incidence of pigment toxicity: 51.5%

## teicoplanin
[2]; bootstrap method (n = 992)
  CL, bootstrap estimate (median): 0.714 L/h
  CLd, bootstrap estimate (median): 4.22 L/h
  CrCLCL, bootstrap estimate (median): 0.196
  Vc, bootstrap estimate (median): 11.3 L
  Vp, bootstrap estimate (median): 35 L
[2]; renal transplant patients
  distribution (volume) in the present model: 46.6 L
[2]; [4]
  CLd, clearance between the central compartment and peripheral compartment (final model estimate): 4.22 L/h
  Vc, volume distribution in the central compartment (final model estimate): 11.3 L
  Vp, volume in the peripheral compartment (final model estimate): 35.3 L
[2]; renal transplant patients, iv 400 mg q12h x3 then 400 mg once daily, 1 h infusion, 306 plasma samples from 79 patients, 2LC-MS/MS, CL=0.711×(CrCL÷17)^0.198
  CL, clearance in the central compartment (final model estimate, typical value): 0.711 L/h
[3]; mostly critically ill patients
  distribution (volume) in previous models: 60.5 to 121.1 L
[3]; previously reported values, critically ill patients, no ref printed at the value
  CL in critically ill patients: 0.838 to 1.03 L/h
MRSA
  treatment success rate: 87%
Plasma albumin
  plasma protein binding rate: about 90%
